Data set [1] can be described thus: Differential scanning calorimetry (DSC) of gaboxadol salt forms. Type of data set: physicochemical. The note with it: for DSC exothermic decomposition onset / DSC exothermic transition onset: 25 to 300° C., 10° C./min, dry nitrogen. How it is done: (§1) The X-ray powder diffraction spectra was generated on a Philips Analytical X'Pert PRO X-ray Diffraction System with PW3040/60 console. A PW3373/00 ceramic Cu LEF X-ray tube K-Alpha radiation was used as the source. The X-ray powder diffraction spectrum was recorded at ambient temperature (CuKα radiation, 3° to 40° (2θ), steps of 0.014°, 0.2 sec per step), giving the results herein. Solid-state carbon-13 NMR spectrum was obtained on a Bruker DSX 400WB NMR system using a Bruker 4 mm double resonance CPMAS probe. Carbon-13 NMR spectrum utilized proton/carbon-13 cross-polarization magic-angle spinning with variable-amplitude cross polarization. The sample was spun at 15.0 kHz, and a total of 2048 scans were collected with a recycle delay of 20 seconds. A line broadening of 40 Hz was applied to the spectrum before FT was performed. Chemical shifts are reported on the TMS scale using the carbonyl carbon of glycine (176.03 p.p.m.) as a secondary reference. DSC traces were recorded between 25 and 300° C. (10° C./min), under a flow of dry nitrogen. TGA was carried out between 25 and 300° C. (10° C./min), under a flow of dry nitrogen.
(Differential scanning calorimetry records heat flow against a reference as temperature is scanned.)

A short description of data set [2]: Thermogravimetric analysis (TGA) of gaboxadol salt forms. Type of data set: physicochemical. The note with it: for TGA decomposition onset / TGA weight loss before decomposition (in words): 25 to 300° C., 10° C./min, dry nitrogen. How it is done: as §1
Data set [3] deals with GABAA receptors comprising α4 and δ subunits (Homo sapiens, UniProt O14764+P48169). The settings on record: Brown et al, British J. Pharmacol., 136, 965-74 (2002); cited from earlier work.

Where a name gives a salt, the structure may show the parent alone.

Chain of GABAA receptors comprising α4 and δ subunits (P48169 36-554): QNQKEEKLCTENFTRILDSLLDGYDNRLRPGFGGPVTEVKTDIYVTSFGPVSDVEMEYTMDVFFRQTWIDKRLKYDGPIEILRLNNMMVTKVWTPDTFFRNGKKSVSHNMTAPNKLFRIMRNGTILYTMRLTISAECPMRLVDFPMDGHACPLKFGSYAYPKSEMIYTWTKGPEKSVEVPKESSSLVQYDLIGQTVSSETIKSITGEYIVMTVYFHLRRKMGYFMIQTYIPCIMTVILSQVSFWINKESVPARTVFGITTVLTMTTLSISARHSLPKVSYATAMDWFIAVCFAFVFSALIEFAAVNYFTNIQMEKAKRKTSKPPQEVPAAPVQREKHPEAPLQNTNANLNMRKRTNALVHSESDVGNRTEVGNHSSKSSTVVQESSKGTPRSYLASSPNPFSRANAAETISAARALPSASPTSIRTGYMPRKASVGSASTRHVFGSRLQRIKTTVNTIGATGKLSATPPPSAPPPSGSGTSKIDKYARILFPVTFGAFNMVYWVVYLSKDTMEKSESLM
Chain of GABAA receptors comprising α4 and δ subunits (O14764 25-452): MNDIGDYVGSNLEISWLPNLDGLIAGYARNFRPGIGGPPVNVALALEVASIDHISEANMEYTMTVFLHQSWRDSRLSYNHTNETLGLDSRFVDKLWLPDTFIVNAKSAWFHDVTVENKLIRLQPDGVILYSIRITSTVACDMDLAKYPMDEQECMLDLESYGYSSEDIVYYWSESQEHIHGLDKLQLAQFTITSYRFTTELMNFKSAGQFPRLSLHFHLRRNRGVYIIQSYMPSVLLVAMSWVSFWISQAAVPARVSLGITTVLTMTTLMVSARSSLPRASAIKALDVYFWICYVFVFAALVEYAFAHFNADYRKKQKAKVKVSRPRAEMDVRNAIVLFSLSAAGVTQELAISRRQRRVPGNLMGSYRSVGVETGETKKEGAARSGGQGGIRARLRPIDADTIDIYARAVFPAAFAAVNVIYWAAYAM
Chain of GABAA receptors comprising α4 and δ subunits (P28472 26-473 partner): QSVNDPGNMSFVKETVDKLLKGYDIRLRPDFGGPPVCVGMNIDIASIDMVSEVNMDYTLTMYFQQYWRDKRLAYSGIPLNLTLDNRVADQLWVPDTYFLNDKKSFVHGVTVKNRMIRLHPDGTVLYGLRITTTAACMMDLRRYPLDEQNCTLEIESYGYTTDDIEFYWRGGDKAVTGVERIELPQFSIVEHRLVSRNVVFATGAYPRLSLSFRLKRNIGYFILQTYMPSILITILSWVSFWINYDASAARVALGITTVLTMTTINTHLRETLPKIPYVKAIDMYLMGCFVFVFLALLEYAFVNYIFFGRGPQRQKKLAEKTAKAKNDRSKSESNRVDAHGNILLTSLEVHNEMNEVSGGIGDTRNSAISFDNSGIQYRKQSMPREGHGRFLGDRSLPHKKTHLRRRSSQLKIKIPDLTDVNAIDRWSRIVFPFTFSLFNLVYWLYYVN

In the case of `Oc1noc2c1CCNC2` [Calcium Salt, gaboxadol calcium], the “DSC observation of exothermic events (in words)” value (“DSC observation” below) in data set [1] (solid analysed by DSC) was “exhibited exothermic decomposition”.

For `C[N+](C)(C)CCO.[O-]c1noc2c1CCNC2` [Choline Salt, gaboxadol choline], the “DSC observation” value in data set [1] (solid analysed by DSC) is given as “exhibited exothermic transitions”.

Take `Oc1noc2c1CCNC2.c1ccc(CNCCNCc2ccccc2)cc1` [N,N-Dibenzyl-ethylenediamine Salt, gaboxadol N,N-dibenzyl(ethylene)diamine]: the “DSC observation” value in data set [1] (solid analysed by DSC) was “exhibited an exothermic transition”.

Consider `Oc1noc2c1CCNC2` [Potassium Salt, gaboxadol potassium], for which, in data set [1] (solid analysed by DSC), the “DSC observation” value is “exhibited exothermic transitions”.

`Oc1noc2c1CCNC2` [Sodium Salt, gaboxadol sodium]: in data set [1] (solid analysed by DSC), the “DSC observation” value is recorded as “exhibited exothermic transitions”.

With `O=C(O)CC(O)(CC(=O)O)C(=O)O.Oc1noc2c1CCNC2` [gaboxadol citrate], the “DSC exothermic decomposition onset” value in data set [1] stood at 175 °C. In addition, in data set [2], the TGA decomposition onset result was “about 190 °C”. Moreover, the TGA weight loss in data set [2] (from 32° C. to 103° C.) was found to be 8.9 wt %.

In the case of `Oc1noc2c1CCNC2` [gaboxadol, 4,5,6,7-tetrahydroisoxazolo[5,4-c]pyridin-3-ol], the “Agonist potency (in words)” value in data set [3] is listed as “particularly potent agonist”.

In the case of gaboxadol L-lysine [L-Lysine Salt], in data set [1] (solid analysed by DSC), the “DSC observation” value is reported as “exhibited exothermic transitions”.

As for gaboxadol acetate [Acetate Salt], in data set [1], the “DSC exothermic transition onset” value amounted to 204 °C. For the same compound, in data set [2], the TGA decomposition onset was 205 °C. Besides, in data set [2] (from 40° C. to 115° C.), the TGA weight loss worked out at 5.0 wt %.

As for “gaboxadol bis-sulfate [Sulfate Salt from ethanol and acetonitrile (Type III)]”, the “DSC exothermic decomposition onset” value in data set [1] came to 207 °C. Further, in data set [2], the TGA decomposition onset entry is “about 220 °C”. Further, the “TGA weight loss, step 2” value in data set [2] (from 118° C. to 154° C.) is reported as 0.8 wt %. For the same compound, in data set [2] (from about 50° C. to 118° C.), the “TGA weight loss, step 1” value stood at 1.4 wt %.

As to “gaboxadol bis-sulfate [Sulfate Salt from trifluorotoluene (Type I)]”, the “DSC exothermic decomposition onset” value in data set [1] was 220 °C. The TGA decomposition onset entry in data set [2] is “about 220 °C”. The “TGA weight loss, step 2” value in data set [2] (from 87° C. to 180° C.) was found to be 4.3 wt %. Moreover, the “TGA weight loss, step 1” value in data set [2] (from about 50° C. to 87° C.) was 1.2 wt %.

Regarding “gaboxadol citrate [Citrate Salt from isopropyl acetate]”, the “DSC exothermic transition onset” value in data set [1] is 175 °C. Further, in data set [2], the TGA decomposition onset result is “about 190 °C”. For the same compound, the TGA weight loss in data set [2] (from 31° C. to 109° C.) came to 18.5 wt %.

On to gaboxadol fumarate [Fumarate Salt], for which, in data set [1], the “DSC exothermic decomposition onset” value was determined as 215 °C. In data set [2], the TGA decomposition onset entry was “about 190 °C” and the “TGA weight loss before decomposition (in words)” value is “no weight loss”.

gaboxadol magnesium [Magnesium Salt]: the “Temperature below which DSC indicated no exothermic events” value in data set [1] (solid analysed by DSC) is “approximately 345 °C”.

In the case of gaboxadol phosphate [Phosphate Salt], the “DSC exothermic decomposition onset” value in data set [1] was “about 200 °C”. Also, in data set [2], the TGA decomposition onset amounted to 214 °C and the “TGA weight loss before decomposition (in words)” value is given as “no weight loss”.

With gaboxadol succinate [Succinate Salt], the “DSC exothermic decomposition onset” value in data set [1] stood at 198 °C. Further, in data set [2], the TGA decomposition onset came to 193 °C and the “TGA weight loss before decomposition (in words)” value is reported as “no weight loss”.

“gaboxadol sulfate [Sulfate Salt (1 mol equiv.)]”: in data set [1], the “DSC exothermic decomposition onset” value was “about 190 °C”. Further, in data set [2], the TGA decomposition onset is 196 °C. In addition, in data set [2] (from 50° C. to 176° C.), the TGA weight loss is reported as 7.1 wt %.

For gaboxadol tartrate [L-Tartrate Salt], the “DSC exothermic decomposition onset” value in data set [1] amounted to 199 °C. For the same compound, the TGA decomposition onset result in data set [2] was “about 189 °C”. Further, in data set [2] (from 31° C. to 177° C.), the TGA weight loss is given as 0.6 wt %.
